pEC50: −log10 of the molar value.
Experiments:
[1] = Compound cytotoxicity, XTT-based colorimetric assay; type: cell-based; conditions: human; uninfected MT2 cells, day 4, XTT
Protocol: Compound cytotoxicity and the corresponding CC50 values were determined using the same protocol as described in the antiviral assay except that uninfected cells were used. Cytotoxicity was assessed on day 4 in uninfected MT2 cells by using a XTT (2,3-bis[2-Methoxy-4-nitro-5-sulfophenyl]-2H-tetrazolium-5-carboxyanilide inner salt)-based colorimetric assay (Sigma-Aldrich, St Louis, Mo.).

recombinant NL4-3 virus = assay: HIV cell culture assay (luciferase reporter antiviral activity); type: cell-based; conditions: Human immunodeficiency virus 1, NL43, MT2
Protocol: HIV cell culture assay—MT=2 cells, 293T cells and the proviral DNA clone of NL4-3 virus were obtained from the NIH AIDS Research and Reference Reagent Program. MT=2 cells were propagated in RPMI 1640 media supplemented with 10% heat inactivated fetal bovine serum (FBS), […] penicillin G and up to 100 units/mL streptomycin. The 293T cells were propagated in DMEM media supplemented with 10% heat inactivated FBS, […] penicillin G and […] streptomycin. A recombinant NL4-3 proviral clone, in which a section of the nef gene was replaced with the Renilla luciferase gene, was used to make the reference virus used in these studies. The recombinant virus was prepared through transfection of the recombinant NL4-3 proviral clone into 293T cells using Transit-293 Transfection Reagent from Mirus Bio LLC (Madison, Wis.). Supernatent was harvested after 2-3 days and the amount of virus present was titered in MT=2 cells using luciferase enzyme activity as a marker by measuring luciferase enzyme activity. Luciferase was quantitated using the EnduRen Live Cell Substrate from Promega (Madison, Wis.). Antiviral activities of compounds toward the recombinant virus were quantified by measuring luciferase activity in MT=2 cells infected for 4-5 days with the recombinant virus in the presence of serial dilutions of the compound.
The 50% effective concentration (EC50) was calculated by using the exponential form of the median effect equation where (Fa)=1/[1+(ED50/drug conc.)m] (Johnson V A, Byington RT. Infectivity Assay. In Techniques in HIV Research. ed. Aldovini A, Walker B D. 71-76. New York: Stockton Press.1990). The 50% inhibitory concentration (EC50) was calculated by using the exponential form of the median effect equation where percent inhibition=1/[1+(EC50/drug concentration)m], where m is a parameter that reflects the slope of the concentration-response curve.

Row | SMILES | CC50 at 4 days [1] [nM] | pEC50 (recombinant NL4-3 virus)
1 | O=C(Cn1nc(C(F)F)cc1C1CC1)N[C@@H](Cc1cc(F)cc(F)c1)c1nc2cc(-c3ncccn3)ccc2c(=O)n1-c1ccc(Cl)c2c(NS(=O)(=O)C3CC3)nn(CC(F)F)c12 (atropisomer, axis not shown; (P)) [Example 34, (S)-N-(1-((3P)-3-(4-chloro-3-(cyclopropanesulfonamido)-1-(2,2-difluoroethyl)-1H-indazol-7-yl)-4-oxo-7-(pyrimidin-2-yl)-3,4-dihydroquinazolin-2-yl)-2-(3,5-difluorophenyl)ethyl)-2-(5-cyclopropyl-3-(difluoromethyl)-1H-pyrazol-1-yl)acetamide] | > 500 | 9.40
2 | Cc1nccnc1-c1ccc2c(=O)n(-c3ccc(Cl)c4c(NS(C)(=O)=O)nn(C)c34)c([C@H](Cc3cc(F)cc(F)c3)NC(=O)Cn3nc(C4CC4)c4ccccc43)nc2c1 (atropisomer, axis not shown; (P)) [Example 2, (S)-N-(1-((3P)-3-(4-chloro-1-methyl-3-(methylsulfonamido)-1H-indazol-7-yl)-7-(3-methylpyrazin-2-yl)-4-oxo-3,4-dihydroquinazolin-2-yl)-2-(3,5-difluorophenyl)ethyl)-2-(3-cyclopropyl-1H-indazol-1-yl)acetamide] | > 500 | 9.68
3 | Cn1nc(NS(C)(=O)=O)c2c(Cl)ccc(-n3c([C@H](Cc4cc(F)cc(F)c4)NC(=O)C(C)(C)n4ccc(C5CC5)n4)nc4nc(-c5ccccc5F)ccc4c3=O)c21 (atropisomer, axis not shown; (P)) [Example 19, (S)-N-(1-((3P)-3-(4-chloro-1-methyl-3-(methylsulfonamido)-1H-indazol-7-yl)-7-(2-fluorophenyl)-4-oxo-3,4-dihydropyrido[2,3-d]pyrimidin-2-yl)-2-(3,5-difluorophenyl)ethyl)-2-(3-cyclopropyl-1H-pyrazol-1-yl)-2-methylpropanamide] | > 500 | 9.66
4 | O=C(Cn1nc(C(F)F)cc1C1CC1)N[C@@H](Cc1cc(F)cc(F)c1)c1nc2cc(-c3ccccn3)ccc2c(=O)n1-c1ccc(Cl)c2c(NS(=O)(=O)C3CC3)nn(CC(F)F)c12 (atropisomer, axis not shown; (P)) [Example 33, (S)-N-(1-((3P)-3-(4-chloro-3-(cyclopropanesulfonamido)-1-(2,2-difluoroethyl)-1H-indazol-7-yl)-4-oxo-7-(pyridin-2-yl)-3,4-dihydroquinazolin-2-yl)-2-(3,5-difluorophenyl)ethyl)-2-(5-cyclopropyl-3-(difluoromethyl)-1H-pyrazol-1-yl)acetamide] | > 500 | 9.10
5 | Cc1nccnc1-c1ccc2c(=O)n(-c3ccc(C)c4c(NS(C)(=O)=O)nn(CC(F)F)c34)c([C@H](Cc3cc(F)cc(F)c3)NC(=O)Cn3nc(C(F)F)c4c3C(F)(F)[C@@H]3C[C@H]43)nc2c1 (atropisomer, axis not shown; (P)) [Example 32, N-((S)-1-(3-(1-(2,2-difluoroethyl)-4-methyl-3-(methylsulfonamido)-1H-indazol-7-yl)-(3P)-7-(3-methylpyrazin-2-yl)-4-oxo-3,4-dihydroquinazolin-2-yl)-2-(3,5-difluorophenyl)ethyl)-2-((3bS,4aR)-3-(difluoromethyl)-5,5-difluoro-3b,4,4a,5-tetrahydro-1H-cyclopropa[3,4]cyclopenta[1,2-c]pyrazol-1-yl)acetamide] | > 500 | 10.20
6 | CC(C)(C(=O)N[C@@H](Cc1cc(F)cc(F)c1)c1nc2nc(-c3ccccc3F)ccc2c(=O)n1-c1ccc(Cl)c2c(NS(C)(=O)=O)nn(CC(F)F)c12)n1ccc(C2CC2)n1 (atropisomer, axis not shown; (P)) [Example 20] | > 500 | 9.02
7 | Cn1nc(NS(C)(=O)=O)c2c(Cl)ccc(-n3c([C@H](Cc4cc(F)cc(F)c4)NC(=O)Cn4nc(C5CC5)c5ccccc54)nc4nc(-c5ccccc5F)ccc4c3=O)c21 (atropisomer, axis not shown; (P)) [Example 15, (S)-N-(1-((3P)-3-(4-chloro-1-methyl-3-(methylsulfonamido)-1H-indazol-7-yl)-7-(2-fluorophenyl)-4-oxo-3,4-dihydropyrido[2,3-d]pyrimidin-2-yl)-2-(3,5-difluorophenyl)ethyl)-2-(3-cyclopropyl-1H-indazol-1-yl)acetamide] | > 500 | 9.77
8 | Cn1nc(NS(C)(=O)=O)c2c(Cl)ccc(-n3c([C@H](Cc4cc(F)cc(F)c4)NC(=O)Cn4ccc(C(C)(C)C)n4)nc4nc(-c5ccccc5F)ccc4c3=O)c21 (atropisomer, axis not shown; (P)) [Example 14, (S)-2-(3-(tert-butyl)-1H-pyrazol-1-yl)-N-(1-((3P)-3-(4-chloro-1-methyl-3-(methylsulfonamido)-1H-indazol-7-yl)-7-(2-fluorophenyl)-4-oxo-3,4-dihydropyrido[2,3-d]pyrimidin-2-yl)-2-(3,5-difluorophenyl)ethyl)acetamide] | > 500 | 9.28
9 | Cc1nccnc1-c1ccc2c(=O)n(-c3ccc(Cl)c4c(NS(=O)(=O)C5CC5)nn(CC(F)F)c34)c([C@H](Cc3cc(F)cc(F)c3)NC(=O)Cn3nc(C(F)F)cc3C3CC3)nc2c1 (atropisomer, axis not shown; (P)) [Example 35, (S)-N-(1-((3P)-3-(4-chloro-3-(cyclopropanesulfonamido)-1-(2,2-difluoroethyl)-1H-indazol-7-yl)-7-(3-methylpyrazin-2-yl)-4-oxo-3,4-dihydroquinazolin-2-yl)-2-(3,5-difluorophenyl)ethyl)-2-(5-cyclopropyl-3-(difluoromethyl)-1H-pyrazol-1-yl)acetamide] | > 500 | 9.44
10 | Cc1nccnc1-c1ccc2c(=O)n(-c3ccc(Cl)c4c(NS(C)(=O)=O)nn(C)c34)c([C@H](Cc3cc(F)cc(F)c3)NC(=O)Cn3nc(C(F)F)c4ccccc43)nc2c1 (atropisomer, axis not shown; (P)) [Example 7, (S)-N-(1-((3P)-3-(4-chloro-1-methyl-3-(methylsulfonamido)-1H-indazol-7-yl)-7-(3-methylpyrazin-2-yl)-4-oxo-3,4-dihydroquinazolin-2-yl)-2-(3,5-difluorophenyl)ethyl)-2-(3-(difluoromethyl)-1H-indazol-1-yl)acetamide] | > 500 | 9.42
11 | Cn1nc(NS(C)(=O)=O)c2c(Cl)ccc(-n3c([C@H](Cc4cc(F)cc(F)c4)NC(=O)Cn4nc(C5CC5)cc4C(F)F)nc4cc(-c5ccccc5F)ccc4c3=O)c21 (atropisomer, axis not shown; (P)) [Example 29, (S)-N-(1-((3P)-3-(4-chloro-1-methyl-3-(methylsulfonamido)-1H-indazol-7-yl)-7-(2-fluorophenyl)-4-oxo-3,4-dihydroquinazolin-2-yl)-2-(3,5-difluorophenyl)ethyl)-2-(3-cyclopropyl-5-(difluoromethyl)-1H-pyrazol-1-yl)acetamide] | > 500 | 8.51
12 | CC(C)(C(=O)N[C@@H](Cc1cc(F)cc(F)c1)c1nc2nc(-c3ccccc3F)ccc2c(=O)n1-c1ccc(Cl)c2c(NS(=O)(=O)C3CC3)nn(CC(F)F)c12)n1ccc(C2CC2)n1 (atropisomer, axis not shown; (P)) [Example 21, (S)-N-(1-((3P)-3-(4-chloro-3-(cyclopropanesulfonamido)-1-(2,2-difluoroethyl)-1H-indazol-7-yl)-7-(2-fluorophenyl)-4-oxo-3,4-dihydropyrido[2,3-d]pyrimidin-2-yl)-2-(3,5-difluorophenyl)ethyl)-2-(3-cyclopropyl-1H-pyrazol-1-yl)-2-methylpropanamide] | > 500 | 8.64
13 | Cn1nc(NS(C)(=O)=O)c2c(Cl)ccc(-n3c([C@H](Cc4cc(F)cc(F)c4)NC(=O)Cn4ccc5ccccc54)nc4cc(-c5ccccc5F)ccc4c3=O)c21 [Example 30, (S)-N-(1-((3P)-3-(4-chloro-1-methyl-3-(methylsulfonamido)-1H-indazol-7-yl)-7-(2-fluorophenyl)-4-oxo-3,4-dihydroquinazolin-2-yl)-2-(3,5-difluorophenyl)ethyl)-2-(1H-indol-1-yl)acetamide] | > 500 | 8.52
14 | Cc1cc(F)ccc1-c1ccc2c(=O)n(-c3ccc(C)c4c(NS(C)(=O)=O)nn(C)c34)c([C@H](Cc3cc(F)cc(F)c3)NC(=O)Cn3nc(C(F)F)c4c3C(F)(F)[C@@H]3C[C@H]43)nc2c1 (atropisomer, axis not shown; (aR)) [Example 31, 2-((3bS,4aR)-3-(difluoromethyl)-5,5-difluoro-3b,4,4a,5-tetrahydro-1H-cyclopropa[3,4]cyclopenta[1,2-c]pyrazol-1-yl)-N-((S)-2-(3,5-difluorophenyl)-1-(3-(1,4-dimethyl-3-(methylsulfonamido)-1H-indazol-7-yl)-(3P)-7-(4-fluoro-2-methylphenyl)-4-oxo-3,4-dihydroquinazolin-2-yl)ethyl)acetamide] | > 500 | 8.64
